Results from ChEMBL document CHEMBL1201862, “PubChem BioAssay data set” (2004).
Active and inactive are the calls of the source.

Experiments:
[1] = target: Mitogen-activated protein kinase 10 (Homo sapiens, UniProt P53779); assay: Dose response biochemical screening assay for inhibitors of c-Jun N-Terminal Kinase 3 (JNK3). [Related pubchem assays: 746 ]
H4 = assay: Luminescence Cell-Based Dose Response HTS to Identify Activators of 5'UTR Stem-Loop Driven Prion Protein mRNA Translation in H4 Neuroglioblastoma Cells. [Related pubchem assays: 1829 (Project Summary), 1814 (Primary HTS)]; type: functional; details: Homo sapiens
[2] = Luminescence Cell-Based Dose Response HTS to Identify Activators of Luciferase Translation or Activity in H4 […] Cells. [Related pubchem assays: 1829 (Project Summary), 1814 (Primary HTS)]; type: functional
[3] = Luminescence Cell-Based Dose Confirmation HTS to Identify Activators of 5'UTR Stem-Loop Driven Alpha-Synuclein mRNA Translation in H4 Neuroglioblastoma Cells. [Related pubchem assays: 1829 (Project Summary), 1814 (Primary HTS)]; type: functional
[4] = target: RNA-editing ligase 1, mitochondrial (Trypanosoma brucei brucei, UniProt P86926); assay: TbREL1 ligase inhibitors, dose response, biochemical, fluorescence, Trypanosoma brucei (AID 1117295); type: functional
RNA-editing ligase 1, mitochondrial, sequence (P86926 whole entry): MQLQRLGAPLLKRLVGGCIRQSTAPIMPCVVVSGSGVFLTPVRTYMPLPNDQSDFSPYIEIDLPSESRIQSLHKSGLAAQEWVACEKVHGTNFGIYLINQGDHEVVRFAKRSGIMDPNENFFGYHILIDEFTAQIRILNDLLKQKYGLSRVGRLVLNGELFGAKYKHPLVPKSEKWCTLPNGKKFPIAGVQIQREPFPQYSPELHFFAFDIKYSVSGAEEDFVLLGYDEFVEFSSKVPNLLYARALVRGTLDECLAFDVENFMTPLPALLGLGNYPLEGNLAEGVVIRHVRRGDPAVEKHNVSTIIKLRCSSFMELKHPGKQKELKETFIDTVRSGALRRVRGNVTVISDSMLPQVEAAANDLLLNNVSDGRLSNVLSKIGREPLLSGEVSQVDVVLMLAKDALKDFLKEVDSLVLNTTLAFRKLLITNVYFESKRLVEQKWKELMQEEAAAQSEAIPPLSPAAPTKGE

[5] = target: T1, Potassium channel subfamily K member 9 (Homo sapiens, UniProt Q9NPC2); assay: KCNK9 (TASK3) current inhibition by patch clamp, SAR follow-up, selectivity assay for TASK1 (KCNK3) inhibitor project, cell-based, automated electrophysiology (AID 652210); type: functional
T1 sequence (Q9NPC2 whole entry): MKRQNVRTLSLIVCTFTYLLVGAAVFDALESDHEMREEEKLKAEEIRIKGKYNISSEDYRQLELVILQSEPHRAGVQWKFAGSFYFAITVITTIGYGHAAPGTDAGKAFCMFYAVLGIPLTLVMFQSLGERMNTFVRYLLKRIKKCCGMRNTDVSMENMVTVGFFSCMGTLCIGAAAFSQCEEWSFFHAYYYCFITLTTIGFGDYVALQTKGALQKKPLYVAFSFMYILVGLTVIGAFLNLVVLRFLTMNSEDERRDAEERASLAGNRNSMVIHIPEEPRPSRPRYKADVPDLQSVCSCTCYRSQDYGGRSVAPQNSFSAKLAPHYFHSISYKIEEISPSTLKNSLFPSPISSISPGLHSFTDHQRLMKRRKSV

[6] = target: Potassium channel subfamily K member 3 (Homo sapiens, UniProt O14649); assay: TASK1 (KCNK3) potassium channel inhibitors, SAR follow-up, CHO cells, FluxOR thallium flux (AID 652212); type: functional
Potassium channel subfamily K member 3 (Homo sapiens, UniProt O14649), sequence (O14649 whole entry, the tested form may be a part): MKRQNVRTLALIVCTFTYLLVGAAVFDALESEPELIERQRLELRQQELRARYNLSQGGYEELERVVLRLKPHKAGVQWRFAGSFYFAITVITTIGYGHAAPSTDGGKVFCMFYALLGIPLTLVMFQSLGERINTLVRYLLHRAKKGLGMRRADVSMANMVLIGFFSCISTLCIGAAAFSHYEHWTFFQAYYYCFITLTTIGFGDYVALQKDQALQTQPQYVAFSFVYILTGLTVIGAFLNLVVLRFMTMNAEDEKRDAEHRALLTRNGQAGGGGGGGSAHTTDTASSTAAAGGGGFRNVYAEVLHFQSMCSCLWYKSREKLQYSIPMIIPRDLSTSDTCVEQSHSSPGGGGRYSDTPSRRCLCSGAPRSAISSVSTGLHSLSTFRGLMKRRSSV

[7] = target: Potassium channel subfamily K member 3 (Rattus norvegicus, UniProt O54912); assay: SAR analysis for the identification of selective inhibitors of the two-pore domain potassium channel TASK1(KCNK3):Automated Electrophysiology.; type: functional
Potassium channel subfamily K member 3 (Rattus norvegicus, UniProt O54912), sequence (O54912 whole entry, the tested form may be a part): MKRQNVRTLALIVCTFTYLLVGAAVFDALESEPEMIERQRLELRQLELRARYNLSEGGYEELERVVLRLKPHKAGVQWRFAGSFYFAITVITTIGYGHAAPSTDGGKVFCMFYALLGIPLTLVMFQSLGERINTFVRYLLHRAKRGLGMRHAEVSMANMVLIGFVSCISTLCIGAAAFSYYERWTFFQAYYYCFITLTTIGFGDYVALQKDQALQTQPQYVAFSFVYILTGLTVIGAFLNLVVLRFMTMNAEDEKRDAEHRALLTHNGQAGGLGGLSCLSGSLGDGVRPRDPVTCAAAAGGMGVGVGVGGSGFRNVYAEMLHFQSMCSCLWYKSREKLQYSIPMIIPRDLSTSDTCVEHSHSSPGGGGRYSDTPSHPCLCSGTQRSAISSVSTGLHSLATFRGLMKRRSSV

[8] = target: T1, Potassium channel subfamily K member 9; assay: TASK3 (KCNK9) channel inhibitors, thallium flux, SAR follow-up, selectivity assay for TASK1 inhibitor project, cell-based, FluxOR thallium flux, concentration-response (AID 652211); type: functional;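 also: potency is for inhibitors of the channel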
[9] = growth suppression of PTEN-null colon cells, dose response, cell-based, HCT116 PTEN knockout (AID 1047); type: functional;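 also: HCT116 colon tumor cells with PTEN knocked out; cells exposed to compound for 60 hours before readout; potency for loss of cell viability measured by luminescence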
[10] = growth suppression of beta-catenin-knockout colon cells, dose response, cell-based, HCT116, human colon tumor (AID 1045); type: functional;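 also: HCT116 colon tumor cells with beta catenin knocked out; cells exposed to compound for 60 hours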
[11] = target: Muscarinic acetylcholine receptor M1 (Rattus norvegicus, UniProt P08482); assay: rat M1 positive allosteric modulator potency, dose response, cell-based, calcium mobilization, CHO-K1, ACh EC20 (AID 2425); type: functional
Muscarinic acetylcholine receptor M1, sequence (P08482 whole entry): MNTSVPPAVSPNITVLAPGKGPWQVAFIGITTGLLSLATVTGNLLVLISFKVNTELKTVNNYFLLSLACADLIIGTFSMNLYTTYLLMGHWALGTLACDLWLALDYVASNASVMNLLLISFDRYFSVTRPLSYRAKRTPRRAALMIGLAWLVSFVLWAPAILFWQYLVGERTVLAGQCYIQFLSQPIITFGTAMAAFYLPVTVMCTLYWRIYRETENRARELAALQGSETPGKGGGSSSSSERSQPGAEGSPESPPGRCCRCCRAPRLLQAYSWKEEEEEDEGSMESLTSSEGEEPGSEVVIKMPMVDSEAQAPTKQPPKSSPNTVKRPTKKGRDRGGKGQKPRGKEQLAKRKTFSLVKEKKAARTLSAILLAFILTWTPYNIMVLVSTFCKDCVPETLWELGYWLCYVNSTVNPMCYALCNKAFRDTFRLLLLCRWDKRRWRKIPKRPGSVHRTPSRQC

Estrogen receptor = target: T2, Estrogen receptor (Homo sapiens, UniProt P03372);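 also: potency for inhibiting coactivator peptide recruitment to the receptor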
T2 sequence (P03372 whole entry): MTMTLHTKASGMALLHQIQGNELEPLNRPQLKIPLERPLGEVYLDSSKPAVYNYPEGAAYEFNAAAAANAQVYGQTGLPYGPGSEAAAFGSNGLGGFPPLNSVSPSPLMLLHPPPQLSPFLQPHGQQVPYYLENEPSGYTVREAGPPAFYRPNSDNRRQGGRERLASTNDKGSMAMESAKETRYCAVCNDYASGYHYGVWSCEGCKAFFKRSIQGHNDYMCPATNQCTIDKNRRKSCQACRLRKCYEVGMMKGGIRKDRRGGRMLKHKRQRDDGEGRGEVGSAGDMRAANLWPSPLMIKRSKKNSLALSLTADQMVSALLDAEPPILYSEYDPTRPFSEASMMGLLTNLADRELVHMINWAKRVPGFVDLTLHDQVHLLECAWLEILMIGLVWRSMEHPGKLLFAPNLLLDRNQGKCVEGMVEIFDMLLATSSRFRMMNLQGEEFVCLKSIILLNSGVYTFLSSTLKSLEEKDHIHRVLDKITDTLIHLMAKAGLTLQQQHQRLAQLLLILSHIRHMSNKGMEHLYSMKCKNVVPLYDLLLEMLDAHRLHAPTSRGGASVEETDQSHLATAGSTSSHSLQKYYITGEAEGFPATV

Estrogen receptor beta [12] = target: T3, Estrogen receptor beta (Homo sapiens, UniProt Q92731);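 also: recombinant ER-beta bound to coactivator SRC1 peptide in presence of estradiol agonist; inhibitors block coactivator peptide binding and lower the FRET signal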
T3 sequence (Q92731 whole entry, the tested form may be a part): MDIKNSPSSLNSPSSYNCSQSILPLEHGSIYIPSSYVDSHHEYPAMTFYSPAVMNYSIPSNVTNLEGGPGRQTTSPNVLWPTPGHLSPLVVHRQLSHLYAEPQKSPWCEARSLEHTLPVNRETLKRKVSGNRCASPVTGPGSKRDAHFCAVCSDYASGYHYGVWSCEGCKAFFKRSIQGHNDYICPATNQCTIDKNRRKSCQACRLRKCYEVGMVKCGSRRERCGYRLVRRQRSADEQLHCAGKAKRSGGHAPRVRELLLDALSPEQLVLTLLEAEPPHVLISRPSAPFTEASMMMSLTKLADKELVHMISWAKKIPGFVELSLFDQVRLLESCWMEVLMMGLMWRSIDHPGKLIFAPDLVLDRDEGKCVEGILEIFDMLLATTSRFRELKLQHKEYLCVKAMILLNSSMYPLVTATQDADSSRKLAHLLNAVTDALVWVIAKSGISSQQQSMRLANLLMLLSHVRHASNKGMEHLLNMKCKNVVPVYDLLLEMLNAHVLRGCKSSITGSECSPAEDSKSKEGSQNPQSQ

[13] = target: E3 ubiquitin-protein ligase UHRF1 (Homo sapiens, UniProt Q96T88); assay: Counterscreen for inhibitors of 5-meCpG-binding domain protein 2 (MBD2): TRFRET-based biochemical high throughput dose response assay to identify inhibitors of binding of ubiquitin-like with PHD and ring finger domains 1 (UHRF1) to methylated oligonucleotide.
E3 ubiquitin-protein ligase UHRF1, sequence (Q96T88 whole entry, the tested form may be a part): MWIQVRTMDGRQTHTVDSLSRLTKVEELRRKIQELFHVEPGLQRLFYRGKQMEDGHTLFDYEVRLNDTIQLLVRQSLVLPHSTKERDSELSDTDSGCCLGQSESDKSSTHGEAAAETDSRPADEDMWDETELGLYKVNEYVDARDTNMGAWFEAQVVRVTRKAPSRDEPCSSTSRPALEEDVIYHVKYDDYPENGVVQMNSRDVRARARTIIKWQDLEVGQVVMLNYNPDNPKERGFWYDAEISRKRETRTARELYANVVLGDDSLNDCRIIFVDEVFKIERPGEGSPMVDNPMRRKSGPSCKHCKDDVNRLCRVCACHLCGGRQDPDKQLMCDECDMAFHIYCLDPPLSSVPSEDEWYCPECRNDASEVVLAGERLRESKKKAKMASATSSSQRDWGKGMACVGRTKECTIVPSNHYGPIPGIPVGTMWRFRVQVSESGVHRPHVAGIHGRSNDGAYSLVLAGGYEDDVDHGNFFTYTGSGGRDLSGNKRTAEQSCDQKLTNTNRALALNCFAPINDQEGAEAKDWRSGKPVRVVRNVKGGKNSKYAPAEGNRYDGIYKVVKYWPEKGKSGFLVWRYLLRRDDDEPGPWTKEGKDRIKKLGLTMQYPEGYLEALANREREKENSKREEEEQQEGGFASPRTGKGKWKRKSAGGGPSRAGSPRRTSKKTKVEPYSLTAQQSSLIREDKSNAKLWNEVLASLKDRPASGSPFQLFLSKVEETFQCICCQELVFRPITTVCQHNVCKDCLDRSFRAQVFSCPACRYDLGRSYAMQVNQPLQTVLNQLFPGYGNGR

Estrogen receptor beta [14] = target: T3, Estrogen receptor beta; assay: ERβ–SRC-3 coactivator interaction inhibitors, confirmation, orthogonal assay, biochemical, ELISA, streptavidin-HRP readout (AID 1060)
[15] = target: T4, Carboxy-terminal domain RNA polymerase II polypeptide A small phosphatase 1 (Homo sapiens, UniProt Q9GZU7); assay: inhibitors of CTDSP1, concentration-response testing, biochemical assay, absorbance-based, actives from ultra-high-throughput screening (AID 540297); type: functional
T4 sequence (Q9GZU7 whole entry): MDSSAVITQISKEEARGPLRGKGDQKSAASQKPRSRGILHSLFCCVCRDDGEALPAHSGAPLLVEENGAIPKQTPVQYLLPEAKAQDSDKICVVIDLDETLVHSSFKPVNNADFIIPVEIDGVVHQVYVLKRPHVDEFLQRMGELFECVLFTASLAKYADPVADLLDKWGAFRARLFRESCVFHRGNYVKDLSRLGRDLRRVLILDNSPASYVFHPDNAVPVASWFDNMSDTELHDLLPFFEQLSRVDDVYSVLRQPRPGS

Bcl-2-related protein A1 [16] = target: T5, Bcl-2-related protein A1 (Mus musculus, UniProt Q07440); assay: Bfl-1 inhibitors blocking BH3 peptide binding, confirmation, biochemical, TR-FRET, mouse Bfl-1 (AID 621);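 also: TR-FRET binding of GST-Bfl-1 to FITC-labelled Bid peptide via terbium antibody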
T5 sequence (Q07440 whole entry): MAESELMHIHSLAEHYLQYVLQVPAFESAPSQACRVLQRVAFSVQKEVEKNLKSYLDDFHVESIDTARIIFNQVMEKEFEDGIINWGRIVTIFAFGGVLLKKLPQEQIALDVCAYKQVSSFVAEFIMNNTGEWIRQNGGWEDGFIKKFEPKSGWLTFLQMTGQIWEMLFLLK

Bcl-2-related protein A1 [17] = target: T5, Bcl-2-related protein A1; assay: Bfl-1 inhibitors, primary screen, biochemical, fluorescence polarization, FITC-Bid, mouse (AID 432)

Mitogen-activated protein kinase 10, sequence (P53779 whole entry): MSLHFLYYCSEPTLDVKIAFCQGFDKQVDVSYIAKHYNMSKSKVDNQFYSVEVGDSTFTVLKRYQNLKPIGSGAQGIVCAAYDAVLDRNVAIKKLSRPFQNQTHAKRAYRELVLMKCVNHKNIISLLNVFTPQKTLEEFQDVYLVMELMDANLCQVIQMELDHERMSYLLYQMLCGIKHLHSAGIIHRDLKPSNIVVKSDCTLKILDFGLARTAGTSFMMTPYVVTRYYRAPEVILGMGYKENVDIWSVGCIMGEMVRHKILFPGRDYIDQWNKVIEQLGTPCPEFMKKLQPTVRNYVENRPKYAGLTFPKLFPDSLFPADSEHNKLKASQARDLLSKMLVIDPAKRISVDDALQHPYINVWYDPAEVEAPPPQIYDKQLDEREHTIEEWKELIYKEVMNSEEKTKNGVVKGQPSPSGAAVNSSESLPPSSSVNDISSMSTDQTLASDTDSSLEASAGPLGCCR

CC1=CC(=C2C(=O)c3ccccc3C2=O)C=C(C)N1C
IC50 [1]: 42.1 µM (not active) | EC50 (H4): 57.2 µM (active) | EC50 [2]: 29.3 µM (active) | EC50 [3]: 53.3 µM (active)

COC(=O)C1=C(C)N(Cc2ccc(C(F)(F)F)cc2)C(NCc2ccc(C(F)(F)F)cc2)=NC1c1ccccc1C(F)(F)F (centres undefined)
IC50 [4]: > 96.6 µM (inactive)

CCOc1ccccc1NC(=O)c1cccc(NC(=O)CC2CCCC2)c1
IC50 [5]: 3.9 µM (active) | IC50 [6]: 0.161 µM (active) | IC50 [7]: 0.32 µM (active) | IC50 [8]: 4.17 µM (active)

Cc1cc(NC(=O)CS(=O)(=O)c2cn(Cc3ccccc3Cl)c3ccccc23)no1
EC50 [9]: 41.3 µM (active) | EC50 [10]: 72.8 µM (active) | EC50 [11]: 9.13 µM (active)

O=C(Cc1coc2cc3c(cc12)CCC3)OCc1cc(=O)n2c(n1)sc1ccccc12
IC50 (Estrogen receptor): 4.83 µM (active) | IC50 (Estrogen receptor beta [12]): 3.05 µM (active) | IC50 [13]: > 43.8 µM (inactive) | IC50 (Estrogen receptor beta [14]): 17.6 µM (not active) | IC50 [15]: 4.58 µM (active)

OCCCc1nc2n(n1)C(c1cccs1)C=C(c1ccccc1)N2 (centres undefined)
IC50 (Bcl-2-related protein A1 [16]): > 100 µM (not active) | IC50 (Bcl-2-related protein A1 [17]): > 100 µM (not active)
